From patent US20260133203A1, “DETECTION OF FUMARATE-DERIVED MODIFICATION IN A TEST SAMPLE” (UNIVERSITY OF SOUTH CAROLINA, priority 2017, published 2026)
Where a name gives a salt, the structure may show the parent alone.

Tests used:
[1] = system: heme oxygenase 1 (HO-1); assay: Western blot of HO-1 expression after DMF treatment; assay type: cell-based
Protocol: N1E-115 cells (subclone N1E-115-1 neuroblastoma cells) were obtained from Sigma (08062511, St. Louis, MO). The cells were grown and expanded in non-differentiation medium (NDM): 90% DMEM (Gibco™, Grand Island, NY) with 25 mM glucose, no pyruvate, 25 mM HEPES, 4 mM glutamine and 10% fetal bovine serum (FBS, Atlanta Biologicals, Atlanta, GA). At 80% confluence, the cells were differentiated into neurons in the presence of 2% FBS and 1.25% dimethyl sulfoxide in DMEM for 5 days. In addition to the assessment of the neuronal phenotype by light microscopy, the detection of synaptophysin protein levels was used to confirm successful differentiation. During the final 6 or 24 hours of differentiation, the cells were treated with 10-100 µM DMF and harvested as described above for primary neurons, with the addition of phosphatase inhibitors to the DPBS washes and the RIPA buffer used for scraping to prevent dephosphorylation of CRMP-2. […] To ensure that the succinated proteins detected were solely of neuronal origin, N1E-115 neuroblastoma cells were differentiated to a neuronal phenotype (confirmed by increased synaptophysin content) and treated with DMF for 24 hours. […]

[2] = system: rat primary neurons; assay: Western blot detection of succinated proteins with anti-2SC antibody, without ester hydrolysis; assay type: cell-based; settings: 100 μM DMF, 24 hours, absence of ester hydrolysis
Protocol: Primary neurons from newborn rat brain cortices were isolated and cultured using an adaptation of methods described previously. Briefly, postnatal day 1 rats were sacrificed by decapitation, the brains were aseptically dissected, and cortices were separated from the rest of the brain in ice-cold Hibernate®-A medium (Life Technologies) containing 2% (v/v) B-27 supplement (Life Technologies) and 0.5 mM glutamine (Invitrogen™). The tissue was minced in fragments of about 1 mm3 with a scalpel and subjected to digestion with 2 mg/ml papain (Worthington) in the supplemented Hibernate®-A medium for 20 minutes at 30° C. in a shaker incubator set at 100 rpm. After thorough trituration through a fire-polished Pasteur pipette, the tissue was allowed to settle for 5 minutes and the supernatant was carefully layered on top of a discontinuous OptiPrep™ (Sigma-Aldrich™) gradient prepared in Hibernate®-A medium; the layers contained 35, 25, 20 and 15% OptiPrep™. […] After a centrifugation at 500 g for 5 min at room temperature, cells were resuspended in Neurobasal™—A medium containing 0.5 mM glutamine, 2% B-27 supplement, and 5 ng/ml bFGF (Invitrogen™); counted and plated on 24-well plates pretreated with 0.01% poly-L-lysine (Sigma-Aldrich™) at a density of 200,000 cells/well. […] The protein content in the different samples was determined by the Lowry assay. […]

COC(=O)/C=C/C(=O)OC [DMF, dimethyl fumarate] was tested, and the HO-1 expression [1] was “significantly induced HO-1 expression” and the “detection of succinated proteins using the anti-2SC antibody” value [2] was “only one band ˜50 kDa showing a significant increase in intensity”.
